In assay [1] the target is Amine oxidase [flavin-containing] B (Bos taurus) (UniProt P56560).
Assay [2] concerns the target Amine oxidase [flavin-containing] A (Bos taurus) (UniProt P21398). As to the kind of experiment: Inhibitory concentbovineion for bovine Monoamine oxidase A.
The nature of assay [3]: Selectivity for bovine Monoamine oxidase A as ratio of Ki(MAO-B)/Ki(MAO-A).

Amine oxidase [flavin-containing] B (Bos taurus), sequence (P56560 whole entry, looked up): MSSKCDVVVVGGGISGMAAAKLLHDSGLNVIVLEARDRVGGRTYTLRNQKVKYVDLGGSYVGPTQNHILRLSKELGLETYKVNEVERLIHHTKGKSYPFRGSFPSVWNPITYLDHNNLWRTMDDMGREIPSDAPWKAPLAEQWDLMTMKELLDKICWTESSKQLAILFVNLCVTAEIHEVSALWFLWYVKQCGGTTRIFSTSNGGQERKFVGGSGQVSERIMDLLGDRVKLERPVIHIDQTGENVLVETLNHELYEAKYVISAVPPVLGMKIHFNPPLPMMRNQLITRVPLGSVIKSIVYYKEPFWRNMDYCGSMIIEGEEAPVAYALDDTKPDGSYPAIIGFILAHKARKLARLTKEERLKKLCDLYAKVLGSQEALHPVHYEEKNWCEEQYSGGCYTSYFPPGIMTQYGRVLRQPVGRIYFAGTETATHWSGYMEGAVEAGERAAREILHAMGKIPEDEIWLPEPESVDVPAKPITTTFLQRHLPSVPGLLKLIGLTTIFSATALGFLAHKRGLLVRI

On to `Cn1cccc1C(O)C(c1ccccc1)N1CCCCC1` (single isomer, unassigned; form 1) [listing 1 of 2 here], for which the Ki – broadly, a dissociation constant, usually derived from enzyme kinetics or from competition with a known ligand – in assay [1] was over 10 µM; in assay [2], 0.52 µM.

Consider `Cn1cccc1C(O)C(c1ccccc1)N1CCCCC1` (racemic; form 1) [listing 1 of 2 here], for which the A-selectivity in assay [3] is 0.29.

In the case of `Cn1cccc1C(O)CN1CCCCC1` (stereo not drawn), the Ki in assay [1] is 23.9 µM; in assay [2] it was 0.51 µM. Moreover, the A-selectivity in assay [3] amounted to 47.

On to `Cn1cccc1C(=O)C(c1ccccc1)N1CCCC1` (racemic), for which the Ki in assay [1] is 600 µM; in assay [2], 0.0075 µM.

In the case of `Cn1cccc1C(=O)C(N)c1ccccc1` (stereo not drawn), the values for the Ki in assay [1] and in assay [2] were 42 µM and 0.095 µM, respectively. Besides, in assay [3], the A-selectivity worked out at 442.

Turning to `Cn1cccc1C(O)C(c1ccccc1)N1CCCCC1` (single isomer, unassigned; form 2) [listing 1 of 2 here], the Ki in assay [1] was 1.24 µM; in assay [2], 7 µM.

As for `Cn1cccc1C(O)C(c1ccccc1)N1CCCCC1` (single isomer, unassigned; (-)) [listing 1 of 2 here], the Ki in assay [1] was 17.2 µM; in assay [2] it was 55 µM.

Regarding `Cn1cccc1C(O)C(c1ccccc1)N1CCCCC1` (single isomer, unassigned; (-)) [listing 2 of 2 here], in assay [3], the A-selectivity was found to be 0.31.

In the case of `Cn1cccc1C(=O)C(c1ccccc1)N1C(=O)c2ccccc2C1=O` (stereo not drawn), the values for the Ki in assay [1] and in assay [2] were over 100 µM and 0.81 µM, respectively. For the same compound, the A-selectivity in assay [3] is over 123.

On to `Cn1cccc1C(O)C(c1ccccc1)N1CCCCC1` (stereo in doubt) [listing 1 of 2 here], for which the Ki in assay [1] was determined as 46 µM; in assay [2], 0.6 µM.

On to `Cn1cccc1C(=O)[C@@H](c1ccccc1)N1CCSCC1`, for which the Ki in assay [1] was found to be 400 µM; in assay [2], 0.076 µM. Besides, in assay [3], the A-selectivity is 5260.

Turning to `CCOc1ccc(NC(C(=O)c2cccn2C)c2ccccc2)cc1` (stereo not drawn), the Ki in assay [1] is over 100 µM; in assay [2], 0.83 µM. Besides, the A-selectivity in assay [3] was over 121.

Regarding `Cn1cccc1C(O)C(c1ccccc1)N1CCCCC1` (racemic; form 2) [listing 1 of 2 here], the Ki in assay [1] came to 140 µM; in assay [2], 1 µM.

For `Cn1cccc1C(O)C(c1ccccc1)N1CCCCC1` (racemic; form 1) [listing 2 of 2 here], the results for the Ki in assay [1] and in assay [2] were 9.22 µM and 31 µM, respectively.

In turn, `Cn1cccc1C(=O)[C@@H](c1ccccc1)N1CCCCC1` registered a Ki in assay [2] of 0.01 µM.

As for `Cn1cccc1C(O)C(c1ccccc1)N1CCCCC1` (stereo in doubt) [listing 2 of 2 here], the A-selectivity in assay [3] worked out at 77.

Take `Cn1cccc1C(=O)[C@H](c1ccccc1)N1CCCC1`: the Ki is 500 µM in assay [1] and 0.0095 µM in assay [2].

With `Cn1cccc1C(=O)[C@@H](c1ccccc1)N1CCCC1`, the Ki came to 700 µM in assay [1] and 0.0035 µM in assay [2].

Regarding `Cn1cccc1C(=O)[C@H](c1ccccc1)N1CCSCC1`, the values for the Ki in assay [1] and in assay [2] were 100 µM and 0.082 µM, respectively. Further, the A-selectivity in assay [3] was determined as 1220.

Turning to `Cn1cccc1C(O)C(c1ccccc1)N1CCCCC1` (single isomer, unassigned; form 2) [listing 2 of 2 here], the A-selectivity in assay [3] is 0.18.

Consider `Cn1cccc1C(=O)C(c1ccccc1)N1CCCCC1` (racemic), for which the Ki is 500 µM in assay [1] and 0.096 µM in assay [2]. The A-selectivity in assay [3] was found to be 5210.

For `CN(C)C(C(=O)c1cccn1C)c1ccccc1` (stereo not drawn), the Ki is 875 µM in assay [1] and 1.75 µM in assay [2]. In addition, the A-selectivity in assay [3] was 500.

For `CN1CCN(C(C(=O)c2cccn2C)c2ccccc2)CC1` (stereo not drawn), the figures for the inhibition constant (Ki) in assay [1] and in assay [2] were over 100 µM and 0.347 µM, respectively. In assay [3], the A-selectivity was over 288.

As for `Cn1cccc1C(=O)C(c1ccccc1)N1CCN(Cc2ccccc2)CC1` (stereo not drawn), the Ki in assay [1] stood at 10 µM; in assay [2] it was 0.93 µM. Moreover, the A-selectivity in assay [3] is 11.

In the case of `Cn1cccc1C(O)C(c1ccccc1)N1CCCCC1` (racemic; form 2) [listing 2 of 2 here], the A-selectivity in assay [3] was 140.

For the compound `Cn1cccc1C(O)C(c1ccccc1)N1CCCCC1` (single isomer, unassigned; form 1) [listing 2 of 2 here], in assay [3], the A-selectivity was over 19.

For the compound `Cn1cccc1C(=O)CN1CCCCC1`, the Ki in assay [1] turned out to be 15 µM; in assay [2] it was 0.007 µM.

On to `Cn1cccc1C(=O)[C@H](c1ccccc1)N1CCCCC1`, for which the figures for the Ki in assay [1] and in assay [2] were 410 µM and 0.1 µM, respectively. Besides, the A-selectivity in assay [3] worked out at 4100.

As for `CC(C(=O)c1cccn1C)N1CCCCC1` (stereo not drawn), the Ki in assay [1] was found to be 36 µM; in assay [2], 0.038 µM.

As for `Cn1cccc1C(=O)C(c1ccccc1)N1CCOCC1` (stereo not drawn), the Ki was over 100 µM in assay [1] and 0.35 µM in assay [2]. Besides, in assay [3], the A-selectivity was over 286.

`Cn1cccc1C(=O)C(c1ccccc1)N1CCSCC1` (stereo not drawn): the values for the Ki in assay [1] and in assay [2] were over 100 µM and 0.1 µM, respectively. Moreover, the A-selectivity in assay [3] was over 1000.

The values are drawn from ChEMBL document CHEMBL1144454, “Design, synthesis, and biological activities of pyrrolylethanoneamine derivatives, a novel class of monoamine oxidases inhibitors” (J Med Chem, 2005).
